Data reported in US6365584B1, “Arylysulphonamide-substituted benzimidazoles having tryptase-inhibiting activity” (Boehringer Ingelheim Pharma KG, priority 1999, dated 2002).

biological target: T1, rh beta tryptase (Homo sapiens, UniProt Q15661); assay: tryptase inhibition test (cleavage of N-p-tosyl-Gly-Pro-Lys-para-nitroaniline, p-nitroaniline measured at 405 nm); assay type: biochemical; details: Tris HCl buffer pH 7.4 with calcium and heparin; substrate 0.6 mM; 5 min pre-incubation, 5 min incubation at 37° C.; enzyme activity 0.91 U/ml
T1 construct: purchased Promega
T1 sequence (Q15661 31-275): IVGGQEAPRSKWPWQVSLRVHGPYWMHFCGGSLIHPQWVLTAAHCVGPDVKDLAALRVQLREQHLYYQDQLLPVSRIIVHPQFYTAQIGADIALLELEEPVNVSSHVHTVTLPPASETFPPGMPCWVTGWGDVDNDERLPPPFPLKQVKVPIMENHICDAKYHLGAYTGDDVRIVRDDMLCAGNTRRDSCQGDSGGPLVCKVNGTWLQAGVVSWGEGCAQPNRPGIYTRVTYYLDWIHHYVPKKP
Method: The compounds according to the invention are characterised by their tryptase-inhibiting activity. This ability to inhibit tryptase was investigated using the test described below. The measurement is carried out in Tris HCl buffer (100 mM), which additionally contains calcium (5 mM) and heparin (100 mg/ml), at pH 7.4. The standard used is rh beta tryptase which may be obtained commercially from Promega, for example. The substrate used is N-p-tosyl-Gly-Pro-Lys-para-nitroaniline in a concentration of 0.6 mM. The substrate is digested with tryptase to form p-nitroaniline which can be measured at 405 nm. Usually, an incubation period of 5 minutes and an incubation temperature of 37° C. are chosen. The enzyme activity used is 0.91 U/ml. The measurements are carried out in an Autoanalyser (CobasBio) made by Hofmann LaRoche. The potential inhibitory substances are used in concentrations of 10 μM in the screening, the inhibition of the tryptase being given in percent. The IC50 is determined at over 70% inhibition (concentration at which 50% of the enzyme activity is inhibited). After 5 minutes' pre-incubation of the potential inhibitory substances, the substrate is added to start the reaction, the formation of p-nitroaniline being taken as a measurement of the enzyme activity after 5 minutes, after testing the linearity.
The data obtained after the above test has been carried out (IC50 values) can be found in Table 3.

IC50 [µM] | Structure (SMILES)
0.186 | Cn1c(CCc2ccc(C(=N)N)cc2)nc2cc(N(CC(=O)N3CCN(c4ccncc4)CC3)S(=O)(=O)c3ccc4ccccc4c3)ccc21 [Example 49, 1-Methyl-2-[2-(4-amidino-phenyl)-ethyl]-5-[N-(4′-pyrid-4″- yl-piperazin-1-yl-carbonyl-methyl)-naphth-2-ylsulphonyl-amino]-benzimidazole]
0.022 | Cn1c(CCc2ccc(C(=N)N)cc2)nc2cc(N(Cc3ccccn3)S(=O)(=O)c3ccc4ccccc4c3)ccc21 [Example 44, 1-Methyl-2-[2-(4-amidino-phenyl)-ethyl]-5-[N-(pyrid-2-yl-methyl)-naphth-2-ylsulphonyl-amino]-benzimidazole;]
0.19 | CCN(CC)CCN(c1ccc2c(c1)nc(CCc1ccc(C(=N)N)cc1)n2CCc1ccccc1)S(=O)(=O)c1ccccc1 [Example 24, 1-(2-phenylethyl)-2-[2-(4-amidinophenyl)-ethyl]-5-[N-(2-diethylaminoethyl)-benzene-sulphonylamino]-benzimidazole]
0.0703 | Cn1c(CCc2ccc(C(=N)N)cc2)nc2cc(N(CCN3CCOCC3)S(=O)(=O)c3ccc4ccccc4c3)ccc21 [Example 47, 1-Methyl-2-[2-(4-amidino-phenyl)-ethyl]-5-[N-(2-morpholinoethyl)-naphth-2-yl-sulphonylamino]-benzimidazole]
0.062 | CCN(CC)CCN(c1ccc2c(c1)nc(CCc1ccc(C(=N)N)cc1)n2CCOC)S(=O)(=O)c1ccccc1 [Example 17, 1-(2-methoxyethyl)-2-[2-(4-amidinophenyl)-ethyl]-5-[N-(2-diethylaminoethyl)-benezene-sulphonylamino]-benzimidazole]
0.074 | CCN(CC)CCN(c1ccc2c(c1)nc(CCc1ccc(C(=N)N)cc1)n2CCOc1ccccc1OC)S(=O)(=O)c1ccccc1 [Example 26, 1-[2-(2-methoxyphenoxy)ethyl]-2-[2-(4-amidinophenyl)-ethyl]-5-[N-(2-diethylaminoethyl)-benzenesulphonylamino]-benzimidazole]
0.025 | CCN(CC)CCN(c1ccc2c(c1)nc(CCc1ccc(C(=N)N)cc1)n2C)S(=O)(=O)c1csc2ccccc12 [Example 43, 1-Methyl-2-[2-(4-amidino-phenyl)-ethyl]-5-[N-(2-diethyl-aminoethyl)-benzo[b]thien-3-yl-sulphonylamino]-benzimidazole]
0.109 | CCCN(CCC)C1CCC(N(c2ccc3c(c2)nc(CCc2ccc(C(=N)N)cc2)n3C)S(=O)(=O)c2ccccc2)CC1 (stereo not drawn) [Example 7, 1-methyl-2-[2-(4-amidino-phenyl)-ethyl]-5-[N-(4-dipropyl-amino-cyclohexanyl)-benzene-sulphonyl-amino]-benzimidazole]

tested on: not given; assay: not given; details: not given

melting point [°C] | Structure (SMILES)
183 to 186 | Cn1c(CCc2ccc(/C(N)=N/O)cc2)nc2cc(N(CCN3CCOCC3)S(=O)(=O)c3ccccc3)ccc21 [Example 56, N-{2-[2-(4-(amino-hydroximinomethyl)-phenyl)-ethyl]-1-methyl-benzimidazol-5-yl}-N-[2-(morpholin-4-yl)-ethyl]-(benzenesulphonamide)]
